Experimental data published in ChEMBL document CHEMBL1909046, “DrugMatrix in vitro pharmacology data”.

Key:
[1] = molecular target: T1, C-X-C chemokine receptor type 2 (Homo sapiens, UniProt P25025); type: cell membranes, CHO-K1, Membrane; conditions: cho-k1; further: in other assays of this panel Not Active means under 50% inhibition at 10 µM
T1 sequence (P25025 whole entry): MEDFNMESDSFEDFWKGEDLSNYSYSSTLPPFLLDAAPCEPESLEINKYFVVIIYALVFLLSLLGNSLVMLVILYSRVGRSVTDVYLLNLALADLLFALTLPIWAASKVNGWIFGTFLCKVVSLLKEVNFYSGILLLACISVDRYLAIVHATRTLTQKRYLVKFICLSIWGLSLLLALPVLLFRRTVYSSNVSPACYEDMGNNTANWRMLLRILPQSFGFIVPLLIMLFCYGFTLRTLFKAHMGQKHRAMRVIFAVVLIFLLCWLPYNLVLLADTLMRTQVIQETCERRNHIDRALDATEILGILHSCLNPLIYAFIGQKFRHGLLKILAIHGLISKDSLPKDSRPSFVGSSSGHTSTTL

[2] = molecular target: Platelet-activating factor receptor (Homo sapiens, UniProt P25105); type: tissue-based; further: in other assays of this panel Not Active means under 50% inhibition at 10 µM
[3] = molecular target: T2, Alpha-2C adrenergic receptor (Homo sapiens, UniProt P18825); assay: DRUGMATRIX: Adrenergic Alpha-2C radioligand binding (ligand: [3H] MK-912); type: cell membranes, Sf9, Membrane
T2 sequence (P18825 whole entry): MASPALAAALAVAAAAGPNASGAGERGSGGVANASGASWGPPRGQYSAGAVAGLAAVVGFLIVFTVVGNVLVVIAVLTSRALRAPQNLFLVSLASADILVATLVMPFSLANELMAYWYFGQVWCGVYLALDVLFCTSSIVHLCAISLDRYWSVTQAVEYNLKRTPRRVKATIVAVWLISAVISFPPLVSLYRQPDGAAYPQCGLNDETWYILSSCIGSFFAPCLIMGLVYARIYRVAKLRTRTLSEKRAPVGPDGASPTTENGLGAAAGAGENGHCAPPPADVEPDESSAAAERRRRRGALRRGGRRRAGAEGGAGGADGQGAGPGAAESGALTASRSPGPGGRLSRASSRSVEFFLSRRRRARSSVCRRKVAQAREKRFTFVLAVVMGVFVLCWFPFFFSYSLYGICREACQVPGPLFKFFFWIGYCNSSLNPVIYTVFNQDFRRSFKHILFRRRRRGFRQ

[4] = molecular target: T3, C-C chemokine receptor type 4 (Homo sapiens, UniProt P51679); type: cell membranes, Chem-1, Membrane; conditions: chem-1; further: in other assays of this panel Not Active means under 50% inhibition at 10 µM
T3 sequence (P51679 whole entry): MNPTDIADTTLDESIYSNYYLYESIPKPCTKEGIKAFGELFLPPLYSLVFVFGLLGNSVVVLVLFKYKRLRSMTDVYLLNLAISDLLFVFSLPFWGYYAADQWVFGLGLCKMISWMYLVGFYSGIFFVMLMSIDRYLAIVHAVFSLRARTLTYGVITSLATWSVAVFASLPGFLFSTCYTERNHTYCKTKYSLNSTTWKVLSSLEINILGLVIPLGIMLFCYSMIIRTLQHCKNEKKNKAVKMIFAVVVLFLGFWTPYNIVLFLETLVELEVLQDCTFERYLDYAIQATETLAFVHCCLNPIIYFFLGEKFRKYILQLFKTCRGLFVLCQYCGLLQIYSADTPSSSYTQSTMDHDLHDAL

[5] = DRUGMATRIX: ATPase, Na+/K+ enzyme inhibition (substrate: ATP); type: tissue-based, Sus scrofa, Heart; conditions: Not Active = under 50% inhibition at 10 µM
[6] = molecular target: T4, D(4) dopamine receptor (Homo sapiens, UniProt P21917); assay: DRUGMATRIX: Dopamine D4.2 radioligand binding (ligand: [3H] Spiperone); type: cell membranes, CHO-K1, Membrane; conditions: cho-k1; Not Active = under 50% inhibition at 10 µM
T4 sequence (P21917 whole entry): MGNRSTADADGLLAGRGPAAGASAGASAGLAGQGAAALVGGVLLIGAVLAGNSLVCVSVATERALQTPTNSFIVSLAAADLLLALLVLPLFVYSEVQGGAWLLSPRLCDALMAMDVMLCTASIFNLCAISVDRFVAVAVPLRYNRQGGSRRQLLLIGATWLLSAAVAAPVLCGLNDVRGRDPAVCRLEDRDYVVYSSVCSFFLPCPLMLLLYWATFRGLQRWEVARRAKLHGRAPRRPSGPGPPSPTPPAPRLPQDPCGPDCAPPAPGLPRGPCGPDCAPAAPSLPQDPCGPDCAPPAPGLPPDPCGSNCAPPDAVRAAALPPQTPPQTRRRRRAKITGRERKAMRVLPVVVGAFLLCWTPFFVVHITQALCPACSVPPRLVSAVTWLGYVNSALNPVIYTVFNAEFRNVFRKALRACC

[7] = molecular target: Vascular endothelial growth factor receptor 1 (Homo sapiens, UniProt P17948); type: cell-based; conditions: huvec; further: in other assays of this panel Not Active means under 50% inhibition at 10 µM
[8] = molecular target: Aldo-keto reductase family 1 member B1 (Rattus norvegicus, UniProt P07943); assay: biochemical; type: tissue-based, Lens of camera-type eye

Chain of Vascular endothelial growth factor receptor 1 (P17948 whole entry): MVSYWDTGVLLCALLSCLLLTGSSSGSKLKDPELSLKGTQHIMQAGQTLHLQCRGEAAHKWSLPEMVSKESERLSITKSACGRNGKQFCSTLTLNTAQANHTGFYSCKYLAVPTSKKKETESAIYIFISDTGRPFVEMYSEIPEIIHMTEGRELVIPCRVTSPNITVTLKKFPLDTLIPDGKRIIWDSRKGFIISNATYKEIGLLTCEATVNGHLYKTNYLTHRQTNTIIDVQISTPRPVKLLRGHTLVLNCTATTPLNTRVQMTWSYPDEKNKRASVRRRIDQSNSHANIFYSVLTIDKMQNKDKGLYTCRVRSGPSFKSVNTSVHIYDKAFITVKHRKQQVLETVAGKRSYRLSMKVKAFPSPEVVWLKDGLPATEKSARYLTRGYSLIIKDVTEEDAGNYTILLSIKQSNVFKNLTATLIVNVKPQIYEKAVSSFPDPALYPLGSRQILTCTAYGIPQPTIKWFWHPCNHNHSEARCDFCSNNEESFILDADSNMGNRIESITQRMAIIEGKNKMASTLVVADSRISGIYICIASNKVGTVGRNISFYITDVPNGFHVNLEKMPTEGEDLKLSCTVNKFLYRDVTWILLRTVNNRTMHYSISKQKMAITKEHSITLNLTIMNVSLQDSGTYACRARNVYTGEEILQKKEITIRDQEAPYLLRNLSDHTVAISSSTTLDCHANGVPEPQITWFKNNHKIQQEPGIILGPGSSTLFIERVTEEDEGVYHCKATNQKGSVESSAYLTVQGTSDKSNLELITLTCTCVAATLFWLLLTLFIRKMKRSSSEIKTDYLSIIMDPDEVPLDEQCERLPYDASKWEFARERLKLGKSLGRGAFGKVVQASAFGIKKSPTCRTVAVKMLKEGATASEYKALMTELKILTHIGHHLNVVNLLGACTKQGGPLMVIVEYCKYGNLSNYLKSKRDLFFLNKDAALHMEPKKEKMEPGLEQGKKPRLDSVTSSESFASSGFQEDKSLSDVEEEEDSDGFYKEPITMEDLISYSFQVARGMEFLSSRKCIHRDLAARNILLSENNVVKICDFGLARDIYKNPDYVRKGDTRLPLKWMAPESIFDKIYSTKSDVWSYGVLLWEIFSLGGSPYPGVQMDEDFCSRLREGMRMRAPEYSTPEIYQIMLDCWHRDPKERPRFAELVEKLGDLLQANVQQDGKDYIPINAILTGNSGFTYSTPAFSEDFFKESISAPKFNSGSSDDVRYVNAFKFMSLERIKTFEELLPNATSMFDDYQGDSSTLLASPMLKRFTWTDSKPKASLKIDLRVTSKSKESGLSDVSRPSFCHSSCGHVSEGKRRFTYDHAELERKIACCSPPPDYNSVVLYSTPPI
Chain of Platelet-activating factor receptor (P25105 whole entry): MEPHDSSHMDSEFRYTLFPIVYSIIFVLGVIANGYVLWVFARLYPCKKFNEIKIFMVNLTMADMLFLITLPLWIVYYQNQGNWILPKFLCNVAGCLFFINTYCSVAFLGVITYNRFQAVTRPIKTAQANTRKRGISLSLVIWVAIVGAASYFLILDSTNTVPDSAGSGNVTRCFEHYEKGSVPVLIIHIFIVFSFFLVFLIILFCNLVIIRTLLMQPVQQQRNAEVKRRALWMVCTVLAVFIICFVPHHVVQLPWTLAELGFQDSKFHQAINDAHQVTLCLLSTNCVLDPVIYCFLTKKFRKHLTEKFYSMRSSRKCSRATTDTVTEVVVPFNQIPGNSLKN

For `CC(C)(c1ccc(O)cc1)c1ccc(O)cc1` [BISPHENOL A], the IC50 [1] was “Not Active”, the IC50 [2] was “Not Active” and the IC50 ([3]; sf9) was “Not Active”. The IC50 [4] was “Not Active”, the IC50 [5] was “Not Active” and the Ki [5] was “Not Active”. The IC50 [6] was “Not Active”, the IC50 [7] was “Not Active” and the IC50 [8] was “Not Active”.

In the case of `C=CCO` [ALLYL ALCOHOL], the IC50 [1] is reported as “Not Active”, the IC50 [2] is reported as “Not Active” and the IC50 ([3]; sf9) is reported as “Not Active”. The IC50 [4] was “Not Active”, the IC50 [5] was “Not Active” and the Ki [5] was “Not Active”. For the same molecule, the IC50 [6] was “Not Active”, the IC50 [7] was “Not Active” and the IC50 [8] was “Not Active”.

For `C[C@]12CC[C@@H](O)C[C@@H]1CC[C@@H]1[C@@H]2CC[C@]2(C)C(=O)CC[C@@H]12` [ANDROSTERONE], the IC50 [1] was “Not Active”, the IC50 [2] was “Not Active” and the IC50 ([3]; sf9) was “Not Active”. For the same molecule, the IC50 [4] was “Not Active”, the IC50 [5] was “Not Active” and the Ki [5] was “Not Active”. For the same molecule, the IC50 [6] was “Not Active”, the IC50 [7] was “Not Active” and the IC50 [8] was “Not Active”.

In the case of `COc1ccc(Cl)cc1C(=O)NCCc1ccc(S(=O)(=O)NC(=O)NC2CCCCC2)cc1` [GLYBURIDE], the IC50 [1] is reported as “Not Active”, the IC50 [2] is reported as “Not Active” and the IC50 ([3]; sf9) is reported as “Not Active”. The IC50 [4] was “Not Active”, the IC50 [5] was “Not Active” and the Ki [5] was “Not Active”. The IC50 [6] was “Not Active”, the IC50 [7] was “Not Active” and the IC50 [8] was “Not Active”.

For `CC(CN1c2ccccc2Sc2ccccc21)N(C)C` (configuration not stated) [PROMETHAZINE], the IC50 [1] was “Not Active”, the IC50 [2] was “Not Active” and the IC50 ([3]; read-out: IC50) was 2430 nM. For the same molecule, the Ki ([3]; read-out: Ki) was 353 nM, the IC50 [4] was “Not Active” and the IC50 [5] was “Not Active”. The Ki [5] was “Not Active”, the IC50 [6] was “Not Active” and the IC50 [7] was “Not Active”. The IC50 [8] was “Not Active”.

With `C[N+](C)(C)CCOP(=O)([O-])OC[C@H](O)CO` the IC50 [1] was “Not Active”, the IC50 [2] was “Not Active” and the IC50 ([3]; sf9) was “Not Active”. For the same molecule, the IC50 [4] was “Not Active”, the IC50 [5] was “Not Active” and the Ki [5] was “Not Active”. For the same molecule, the IC50 [6] was “Not Active”, the IC50 [7] was “Not Active” and the IC50 [8] was “Not Active”.

For `NCC(CC(=O)O)c1ccc(Cl)cc1` (configuration not stated) [BACLOFEN], the IC50 [1] was “Not Active”, the IC50 [2] was “Not Active” and the IC50 ([3]; sf9) was “Not Active”. For the same molecule, the IC50 [4] was “Not Active”, the IC50 [5] was “Not Active” and the Ki [5] was “Not Active”. For the same molecule, the IC50 [6] was “Not Active”, the IC50 [7] was “Not Active” and the IC50 [8] was “Not Active”.

In the case of `CC12CCC(CC1=O)C2(C)C` (configuration not stated) [CAMPHOR], the IC50 [1] is reported as “Not Active”, the IC50 [2] is reported as “Not Active” and the IC50 ([3]; sf9) is reported as “Not Active”. For the same molecule, the IC50 [4] was “Not Active”, the IC50 [5] was “Not Active” and the Ki [5] was “Not Active”. For the same molecule, the IC50 [6] was “Not Active”, the IC50 [7] was “Not Active” and the IC50 [8] was “Not Active”.

With POVIDONE the IC50 [1] was “Not Active”, the Ki [1] was “Not Active” and the IC50 [2] was “Not Active”. The Ki [2] was “Not Active”, the IC50 ([3]; sf9) was “Not Active” and the Ki ([3]; sf9) was “Not Active”. For the same molecule, the IC50 [4] was “Not Active”, the Ki [4] was “Not Active” and the IC50 [5] was “Not Active”. For the same molecule, the Ki [5] was “Not Active”, the IC50 [6] was “Not Active” and the Ki [6] was “Not Active”. For the same molecule, the IC50 [7] was “Not Active”, the Ki [7] was “Not Active” and the IC50 [8] was “Not Active”. For the same molecule, the Ki [8] was “Not Active”.

With `CN(Cc1cc(Br)cc(Br)c1N)C1CCCCC1` [BROMHEXINE] the IC50 [1] was “Not Active”, the IC50 [2] was “Not Active” and the IC50 ([3]; sf9) was “Not Active”. The IC50 [4] was “Not Active”, the IC50 [5] was “Not Active” and the Ki [5] was “Not Active”. For the same molecule, the IC50 [6] was “Not Active”, the IC50 [7] was “Not Active” and the IC50 [8] was “Not Active”.

With `Cc1ccnc2c1NC(=O)c1cccnc1N2C1CC1` [NEVIRAPINE] the IC50 [1] was “Not Active”, the IC50 [2] was “Not Active” and the IC50 ([3]; sf9) was “Not Active”. The IC50 [4] was “Not Active”, the IC50 [5] was “Not Active” and the Ki [5] was “Not Active”. For the same molecule, the IC50 [6] was “Not Active”, the IC50 [7] was “Not Active” and the IC50 [8] was “Not Active”.
